Molecular target: T1, rat NaP2b (SLC34A2) (Rattus norvegicus, UniProt Q9JJ09)
T1 construct: host or cells: HEK293
T1 sequence (Q9JJ09 1-695): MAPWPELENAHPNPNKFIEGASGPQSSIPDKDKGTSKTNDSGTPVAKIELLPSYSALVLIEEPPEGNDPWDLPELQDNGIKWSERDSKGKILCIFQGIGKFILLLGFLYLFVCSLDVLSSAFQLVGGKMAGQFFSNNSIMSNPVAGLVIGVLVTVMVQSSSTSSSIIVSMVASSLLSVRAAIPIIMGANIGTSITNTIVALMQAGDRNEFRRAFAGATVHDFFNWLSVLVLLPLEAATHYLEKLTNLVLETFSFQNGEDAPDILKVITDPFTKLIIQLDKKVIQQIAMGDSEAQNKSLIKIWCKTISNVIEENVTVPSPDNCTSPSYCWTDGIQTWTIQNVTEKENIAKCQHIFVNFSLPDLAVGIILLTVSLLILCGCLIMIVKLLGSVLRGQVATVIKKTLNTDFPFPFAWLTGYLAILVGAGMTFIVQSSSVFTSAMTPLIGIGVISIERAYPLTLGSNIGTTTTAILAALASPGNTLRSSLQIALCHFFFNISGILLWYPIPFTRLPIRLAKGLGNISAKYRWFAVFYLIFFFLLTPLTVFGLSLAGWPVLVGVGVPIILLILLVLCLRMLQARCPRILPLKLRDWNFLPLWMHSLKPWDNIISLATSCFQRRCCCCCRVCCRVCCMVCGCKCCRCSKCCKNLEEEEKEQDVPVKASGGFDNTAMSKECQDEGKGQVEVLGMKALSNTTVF
Assay: Inhibition of NaP2b-mediated Pi (33P) uptake in transfected HEK293 cells, rat NaP2b
Assay type: cell-based
Conditions: 33P Pi uptake, 0.1 mM phosphate, value given as pIC50 range
Summary of the method: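 The cells transiently expressed NaP2b after Lipofectamine transfection. Each compound was run in duplicate over twelve concentrations, 0.1 nM–30 uM.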

IC50	SMILES
1 to 7.94 µM	CC(=O)N[C@@H]1CCN(Cc2cccc(C(=O)Nc3ccc(N4CCCCC4)cc3-c3cc(C(=O)NCc4cccc(C(F)(F)F)c4)ccn3)n2)C1 [Example 55, (R)-6-((3-Acetamidopyrrolidin-1-yl)methyl)-N-(4-(piperidin-1-yl)-2-(4-((3-(trifluoromethyl)benzyl)carbamoyl)pyridin-2-yl)phenyl)picolinamide 2,2,2-trifluoroacetate]
10 to 31.6 µM	CC(=O)N[C@H]1CCN(Cc2cccc(C(=O)Nc3ccc(N4CCCCC4)cc3-c3cc(C(=O)NCc4cccc(C(F)(F)F)c4)ccn3)n2)C1 [Example 56, (S)-6-((3-Acetamidopyrrolidin-1-yl)methyl)-N-(4-(piperidin-1-yl)-2-(4-((3-(trifluoromethyl)benzyl)carbamoyl)pyridin-2-yl)phenyl)picolinamide]
10 to 31.6 µM	CC(=O)NC1CCN(Cc2cccc(C(=O)Nc3ccc(N4CCCCC4)cc3-c3cc(C(=O)NCc4cccc(C(F)(F)F)c4)ccn3)n2)CC1 [Example 57, 6-((4-Acetamidopiperidin-1-yl)methyl)-N-(4-(piperidin-1-yl)-2-(4-((3-(trifluoromethyl)benzyl)carbamoyl)pyridin-2-yl)phenyl)picolinamide]
1 to 7.94 µM	CC(=O)N1CCN(Cc2cccc(C(=O)Nc3ccc(N4CCCCC4)cc3-c3cc(C(=O)NCc4cccc(C(F)(F)F)c4)ccn3)n2)CC1 [Example 58, 6-((4-Acetylpiperazin-1-yl)methyl)-N-(4-(piperidin-1-yl)-2-(4-((3-(trifluoromethyl)benzyl)carbamoyl)pyridin-2-yl)phenyl)picolinamide]
1 to 7.94 µM	CC(=O)N1CCCN(Cc2cccc(C(=O)Nc3ccc(N4CCCCC4)cc3-c3cc(C(=O)NCc4cccc(C(F)(F)F)c4)ccn3)n2)CC1 [Example 59, 6-((4-Acetyl-1,4-diazepan-1-yl)methyl)-N-(4-(piperidin-1-yl)-2-(4-((3-(trifluoromethyl)benzyl)carbamoyl)pyridin-2-yl)phenyl)picolinamide]
10 to 31.6 µM	CC(=O)N1CCN(CCN(C)Cc2cccc(C(=O)Nc3ccc(N4CCCCC4)cc3-c3cc(C(=O)NCc4cccc(C(F)(F)F)c4)ccn3)n2)CC1 [Example 60, 6-(((2-(4-Acetylpiperazin-1-yl)ethyl)(methyl)amino)methyl)-N-(4-(piperidin-1-yl)-2-(4-((3-(trifluoromethyl)benzyl)carbamoyl)pyridin-2-yl)phenyl)picolinamide]
10 to 31.6 µM	CN1CCN(CCN(C)Cc2cccc(C(=O)Nc3ccc(N4CCCCC4)cc3-c3cc(C(=O)NCc4cccc(C(F)(F)F)c4)ccn3)n2)CC1 [Example 61, 6-((Methyl(2-(4-methylpiperazin-1-yl)ethyl)amino)methyl)-N-(4-(piperidin-1-yl)-2-(4-((3-(trifluoromethyl)benzyl)carbamoyl)pyridin-2-yl)phenyl)picolinamide]
10 to 31.6 µM	CN(CCN1CCN(S(C)(=O)=O)CC1)Cc1cccc(C(=O)Nc2ccc(N3CCCCC3)cc2-c2cc(C(=O)NCc3cccc(C(F)(F)F)c3)ccn2)n1 [Example 62, 6-((Methyl(2-(4-(methylsulfonyl)piperazin-1-yl)ethyl)amino)methyl)-N-(4-(piperidin-1-yl)-2-(4-((3-(trifluoromethyl)benzyl)carbamoyl)pyridin-2-yl)phenyl)picolinamide]
1 to 7.94 µM	COCCNC(=O)N1CCN(CCN(C)Cc2cccc(C(=O)Nc3ccc(N4CCCCC4)cc3-c3cc(C(=O)NCc4cccc(C(F)(F)F)c4)ccn3)n2)CC1 [Example 63, N-(2-Methoxyethyl)-4-(2-(methyl((6-((4-(piperidin-1-yl)-2-(4-((3-(trifluoromethyl)benzyl)carbamoyl)pyridin-2-yl)phenyl)carbamoyl)pyridin-2-yl)methyl)amino)ethyl)piperazine-1-carboxamide]
10 to 31.6 µM	O=C(NCCOCCO)c1cccc(C(=O)Nc2ccc(N3CCCCC3)cc2-c2cc(NCc3cccc(C(F)(F)F)c3)ncn2)c1 [Example 64, N1-(2-(2-Hydroxyethoxy)ethyl)-N3-(4-(piperidin-1-yl)-2-(6-((3-(trifluoromethyl)benzyl)amino)pyrimidin-4-yl)phenyl)isophthalamide]
10 to 31.6 µM	O=C(NCCOCCO)c1cccc(C(=O)Nc2ccc(Cl)cc2-c2cc(NCc3cccc(C(F)(F)F)c3)ncn2)c1 [Example 65, N1-(4-Chloro-2-(6-((3-(trifluoromethyl)benzyl)amino)pyrimidin-4-yl)phenyl)-N3-(2-(2-hydroxyethoxy)ethyl)isophthalamide]
10 to 31.6 µM	O=C(O)CCSCc1cccc(C(=O)Nc2ccc(Cl)cc2-c2cc(NCc3cccc(C(F)(F)F)c3)ncn2)c1 [Example 66, 3-((3-((4-Chloro-2-(6-((3-(trifluoromethyl)benzyl)amino)pyrimidin-4-yl)phenyl)carbamoyl)benzyl)thio)propanoic acid]
10 to 31.6 µM	CN(C)CCC#Cc1cccc(C(=O)Nc2ccc(Cl)cc2-c2cc(NCc3cccc(C(F)(F)F)c3)ncn2)c1 [Example 67, N-(4-Chloro-2-(6-(3-(trifluoromethyl)benzylamino)pyrimidin-4-yl)phenyl)-3-(4-(dimethylamino)but-1-ynyl)benzamide 2,2,2-trifluoroacetate]
10 to 31.6 µM	CCN(CC)CCN(C)Cc1cccc(C(=O)Nc2ccc(Cl)cc2-c2cc(NCc3cccc(C(F)(F)F)c3)ncn2)c1 [Example 68, N-(4-Chloro-2-(6-((3-(trifluoromethyl)benzyl)amino)pyrimidin-4-yl)phenyl)-3-(((2-(diethylamino)ethyl)(methyl)amino)methyl)benzamide]
10 to 31.6 µM	O=C(O)CCSCc1cccc(C(=O)Nc2ccc(N3CCCCC3)cc2-c2cc(NCc3cccc(C(F)(F)F)c3)ccn2)c1 [Example 69, 3-((3-((4-(Piperidin-1-yl)-2-(4-((3-(trifluoromethyl)benzyl)amino)pyridin-2-yl)phenyl)carbamoyl)benzyl)thio)propanoic acid]
10 to 31.6 µM	O=C(O)CCSCc1cccc(C(=O)Nc2ccc(N3CCCCC3)cc2-c2cc(NCCc3cccc(C(F)(F)F)c3)ccn2)c1 [Example 70, 3-((3-((4-(Piperidin-1-yl)-2-(4-((3-(trifluoromethyl)phenethyl)amino)pyridin-2-yl)phenyl)carbamoyl)benzyl)thio)propanoic acid]
10 to 31.6 µM	Cc1ccc(Nc2ccnc(-c3cc(N4CCCCC4)ccc3NC(=O)c3cccc(CSCCC(=O)O)c3)c2)cc1C [Example 71, 3-((3-((2-(4-((3,4-Dimethylphenyl)amino)pyridin-2-yl)-4-(piperidin-1-yl)phenyl)carbamoyl)benzyl)thio)propanoic acid]
10 to 31.6 µM	O=C(O)CCSCc1cccc(C(=O)Nc2ccc(N3CCCCC3)cc2-c2cc(Nc3cccc(C(F)(F)F)c3)ccn2)c1 [Example 72, 3-((3-((4-(Piperidin-1-yl)-2-(4-((3-(trifluoromethyl)phenyl)amino)pyridin-2-yl)phenyl)carbamoyl)benzyl)thio)propanoic acid]
10 to 31.6 µM	O=C(O)CCSCc1cccc(C(=O)Nc2ccc(N3CCCCC3)cc2-c2cc(NC(=O)c3cccc(C(F)(F)F)c3)ccn2)c1 [Example 73, 3-((3-((4-(Piperidin-1-yl)-2-(4-(3-(trifluoromethyl)benzamido)pyridin-2-yl)phenyl)carbamoyl)benzyl)thio)propanoic acid]
10 to 31.6 µM	Cc1ccc(C(=O)Nc2ccnc(-c3cc(N4CCCCC4)ccc3NC(=O)c3cccc(CSCCC(=O)O)c3)c2)cc1C [Example 74, 3-((3-((2-(4-(3,4-Dimethylbenzamido)pyridin-2-yl)-4-(piperidin-1-yl)phenyl)carbamoyl)benzyl)thio)propanoic acid]
10 to 31.6 µM	O=C(NCc1cccc(C(F)(F)F)c1)c1ccnc(-c2cc(N3CCCCC3)ccc2NC(=O)c2cccc(Cn3cc(CCO)nn3)c2)c1 [Example 75, 2-(2-(3-((4-(2-Hydroxyethyl)-1H-1,2,3-triazol-1-yl)methyl)benzamido)-5-(piperidin-1-yl)phenyl)-N-(3-(trifluoromethyl)benzyl)isonicotinamide]
10 to 31.6 µM	CC(Nc1cc(-c2cc(N3CCCCC3)ccc2NC(=O)c2cccc(CSCCC(=O)O)c2)ncn1)c1cccc(C(F)(F)F)c1 (stereo not drawn) [Example 76, 3-((3-((4-(Piperidin-1-yl)-2-(6-((1-(3-(trifluoromethyl)phenyl)ethyl)amino)pyrimidin-4-yl)phenyl)carbamoyl)benzyl)thio)propanoic acid]
1 to 7.94 µM	CC(NC(=O)c1ccnc(-c2cc(N3CCCCC3)ccc2NC(=O)c2cccc(CSCCC(=O)O)c2)c1)c1cccc(C(F)(F)F)c1 (stereo not drawn) [Example 77, 3-(3-(4-(piperidin-1-yl)-2-(4-(1-(3-(trifluoromethyl)phenyl)ethylcarbamoyl)pyridin-2-yl)phenylcarbamoyl)benzylthio)propanoic acid]
10 to 31.6 µM	O=C(O)CCSCc1cccc(C(=O)Nc2ccc(N3CCCCC3)cc2-c2cc(C(=O)NCc3ccc(N4CCOCC4)cc3)ccn2)c1 [Example 78, 3-(3-(2-(4-(4-Morpholinobenzylcarbamoyl)pyridin-2-yl)-4-(piperidin-1-yl)-phenylcarbamoyl)benzylthio) propanoic acid]
